Here are results for eleven molecules from PubChem BioAssay (NCI).

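Test compounds were applied to cells in 96-well plates for 48 hours at 5 doses. GI50: concentration for 50% inhibition of growth. The concentration for full growth arrest is given as TGI.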 Where only a bound is given, the exact number is not on record here.

Common to all, as to assay: inhibition of tumour cell growth, NCI panel, 48 h
For assay [1], the system named is COLO 205 colon.
Assay [2] relates to HL-60(TB) leukemia.
The test system of assay [3] is NCI-H23 lung.
The subject of assay [4] is CCRF-CEM leukemia.
In assay [5] the test system is CAKI-1 renal.
The test system of assay [6] is PC-3 prostate.
In assay [7] the test system is A498 renal.
The subject of assay [8] is SK-MEL-2 melanoma.
Assay [9] concerns SW-620 colon.
Assay [10] has as its system OVCAR-3 ovarian.

Regarding `CC(C)=CCc1ccc(O)c(=O)cc1C(C)C`, the GI50 in assay [1] was 3.27 µM; in [2], 0.624 µM; in [3] it was 0.701 µM; in assay [4] it was 0.485 µM; in assay [5] it was 0.29 µM; in assay [6], 1.13 µM. Moreover, the GI50 in assay [7] is 5.18 µM; in assay [8], 2.06 µM; in [9] it was 0.566 µM; in assay [10], 0.654 µM. In addition, the TGI in assay [1] is > 100 µM; in [2], 8.72 µM; in assay [3] it was > 51.3 µM; in assay [4], > 100 µM; in assay [5], 2.4 µM; in [6], > 100 µM. Also, the TGI was 64.7 µM in assay [7], > 85.7 µM in [8], > 100 µM in assay [9] and > 83.4 µM in assay [10].

Turning to `CC1CC(C)/C(=N/NC(N)=O)C(C(O)CC2CCC(=O)NC2=O)C1` (stereo not given), the GI50 in assay [1] was 3.7 µM; in [2], 5.6 µM; in assay [3], 3.57 µM; in assay [4], 2 µM; in [5] it was 1.22 µM; in assay [6], 4.1 µM. Further, the GI50 in assay [7] was 4.94 µM; in assay [8], 2.2 µM; in assay [9] it was 2.9 µM; in assay [10] it was 5.54 µM. Also, the TGI in assay [1] is 51.5 µM; in assay [2], > 100 µM; in assay [3], > 100 µM; in [4], 97.2 µM; in assay [5], 20.3 µM; in assay [6], > 100 µM. For the same molecule, the TGI was 92.4 µM in assay [7], 12.3 µM in assay [8], > 100 µM in assay [9] and 48.1 µM in assay [10].

Consider `CC(C)(C)c1cn2cccc(C(=O)N3CCN(CC(=O)Nc4ccc(Cl)cc4C(=O)c4ccccc4Cl)CC3)c2n1`, for which the GI50 in [1] is 6.49 µM; in [2], > 100 µM; in assay [3], 18.8 µM; in assay [4], 3.39 µM; in [5], 3.31 µM; in [6], 2.35 µM. For the same molecule, the GI50 was 3.48 µM in [7], 5 µM in [8], 7.81 µM in assay [9] and 3.71 µM in assay [10]. Also, the TGI in [1] was 43.6 µM; in assay [2], > 100 µM; in assay [3], > 100 µM; in [4], 13.7 µM; in [5] it was 14.2 µM; in assay [6], 6.88 µM. Besides, the TGI in assay [7] is 9.38 µM; in assay [8], 33.6 µM; in [9] it was 29.1 µM; in [10], 15.5 µM.

Regarding `Cc1cc(O)ccc1O`, the GI50 is 23.7 µM in assay [1]; 2.64 µM in [2]; 39.4 µM in assay [3]; 3.4 µM in assay [4]; 20.7 µM in assay [5]; 32.8 µM in [6]. Besides, the GI50 is 79.9 µM in [7], > 100 µM in assay [8], 20.7 µM in assay [9] and 14.1 µM in [10]. Also, the TGI was 47.6 µM in [1]; 7.43 µM in [2]; > 100 µM in assay [3]; > 100 µM in [4]; 57.4 µM in [5]; > 100 µM in assay [6]. The TGI was > 100 µM in [7], > 100 µM in [8], 38.6 µM in assay [9] and 27.9 µM in assay [10].

Consider `O=C1CSC(=S)N1Cc1cccnc1`, for which the GI50 in assay [1] was 5.59 µM; in assay [2], 7.27 µM; in assay [3], 15.1 µM; in [4], 4.37 µM; in [5], 12.4 µM; in assay [6] it was 16.2 µM. Also, the GI50 in [7] is 22.7 µM; in assay [8] it was 4.21 µM; in assay [9] it was 4.13 µM; in assay [10] it was 3.39 µM. The TGI is 21.1 µM in assay [1]; 49 µM in assay [2]; 48 µM in assay [3]; 86.2 µM in assay [4]; 33.4 µM in assay [5]; > 100 µM in [6]. Also, the TGI was found to be 56.2 µM in assay [7], 16.5 µM in [8], 16.8 µM in [9] and 12.1 µM in [10].

On to `COc1ccc(/C(=N\O)c2cc(OC)c(OC)c(OC)c2)c(OC)c1N`, for which the GI50 was 2.23 µM in [1]; 2.6 µM in assay [2]; 6.45 µM in [3]; 3.54 µM in [4]; 4.38 µM in assay [5]; 4 µM in assay [6]. Also, the GI50 in assay [7] was 3.75 µM; in assay [8], 7.48 µM; in assay [9], 3.97 µM; in assay [10] it was 2.53 µM. For the same molecule, the TGI in assay [1] is 6.5 µM; in [2] it was 6.55 µM; in assay [3], > 100 µM; in [4], > 100 µM; in [5], > 100 µM; in [6] it was > 100 µM. In addition, the TGI in assay [7] is > 100 µM; in assay [8], > 100 µM; in assay [9] it was > 100 µM; in [10] it was 7.8 µM.

In the case of `Cn1c(=O)c2[nH]c(C3CC(=O)CC(c4nc5c([nH]4)c(=O)n(C)c(=O)n5C)N3)nc2n(C)c1=O` (stereo not given), the TGI in [1], in assay [2], in assay [3], in [4], in assay [5] and in assay [6] was > 100 µM each time. The TGI in assay [7], in assay [8], in assay [9] and in assay [10] was > 100 µM in each case.

In the case of `O=C(Nc1ccc(Cl)cc1)c1ccc([N+](=O)[O-])o1`, the GI50 in assay [1] is 1.75 µM; in assay [2], 2.63 µM; in assay [3], 1.81 µM; in [4], 4.11 µM; in [5], 2.34 µM; in assay [6], 2.35 µM. For the same molecule, the GI50 is 3.46 µM in [7], 2.76 µM in [8], 1.12 µM in [9] and 2.92 µM in [10]. Moreover, the TGI is 3.18 µM in assay [1]; 7.66 µM in assay [2]; 4.54 µM in assay [3]; 49.4 µM in assay [4]; 10.1 µM in [5]; > 30.3 µM in assay [6]. Further, the TGI stood at 14.8 µM in [7], 6.53 µM in [8], 2.68 µM in assay [9] and 9.4 µM in [10].

Take `COc1cc(Nc2ncc3c(C)nc(-c4cccc(Oc5ccccc5)c4)n3n2)cc(OC)c1OC`: the GI50 was 7.68 µM in assay [1]; 6.01 µM in assay [2]; 6.68 µM in [3]; 3.9 µM in assay [4]; 1.24 µM in [5]; 5.1 µM in assay [6]. The GI50 was 2.03 µM in [7], 2.58 µM in assay [8], 9.61 µM in [9] and 4.64 µM in [10]. In addition, the TGI was > 25 µM in assay [1]; 14.1 µM in assay [2]; > 25 µM in assay [3]; > 25 µM in assay [4]; > 25 µM in assay [5]; 24.6 µM in [6]. The TGI in [7] was > 22.9 µM; in [8], 9.71 µM; in assay [9], > 25 µM; in assay [10], 11.2 µM.

`O=C1Nc2ccccc2/C1=C/c1ccccc1`: the TGI in [1] is 30.9 µM; in assay [2], 43.5 µM; in [3] it was 42.7 µM; in assay [4] it was 71.6 µM; in assay [5], > 100 µM; in [6], 31.1 µM. Further, the TGI in assay [7] was 30.5 µM; in assay [8], 28.5 µM; in [9], > 100 µM; in assay [10] it was 33.7 µM.

`COc1cc2c(cc1OCCCCCn1c(-c3ccco3)nc3ccccc31)N=C[C@@H]1CCCN1C2=O`: the GI50 is < 0.01 µM in assay [1]; 0.023 µM in assay [2]; < 0.01 µM in assay [3]; < 0.01 µM in assay [4]; < 0.01 µM in assay [5]; < 0.01 µM in assay [6]. The GI50 in assay [7] is < 0.01 µM; in [8] it was < 0.0147 µM; in assay [9] it was < 0.01 µM; in assay [10] it was < 0.01 µM. Further, the TGI in assay [1] was < 0.01 µM; in assay [2] it was 0.114 µM; in assay [3], < 0.01 µM; in [4], 0.09 µM; in assay [5], 0.0318 µM; in assay [6] it was > 100 µM. The TGI is < 0.0156 µM in assay [7], 0.07 µM in assay [8], 10.1 µM in [9] and < 0.01 µM in assay [10].
